From PubChem BioAssay (NCI)
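Exposure lasted 48 hours, with cells grown in 96-well plates and compounds tested at five concentrations. At the GI50, growth is halved. At the TGI there is no net growth.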

Columns and labels:
Experiment in all cases: growth of human tumour cells (NCI), 48 h
SK-MEL-28 melanoma = tested on: SK-MEL-28 melanoma
SNB-75 CNS = tested on: SNB-75 CNS
M14 melanoma = tested on: M14 melanoma
T-47D breast = tested on: T-47D breast
OVCAR-4 ovarian = tested on: OVCAR-4 ovarian
SF-539 CNS = tested on: SF-539 CNS
A549 NSCLC = tested on: A549 NSCLC
OVCAR-3 ovarian = tested on: OVCAR-3 ovarian
SN12C renal = tested on: SN12C renal
RXF 393 renal = tested on: RXF 393 renal
NCI-H226 lung = tested on: NCI-H226 lung
HCT-15 colon = tested on: HCT-15 colon
ACHN renal = tested on: ACHN renal
UO-31 renal = tested on: UO-31 renal
A498 renal = tested on: A498 renal
NCI-H23 lung = tested on: NCI-H23 lung
MDA-MB-231 breast = tested on: MDA-MB-231 breast
KM12 colon = tested on: KM12 colon
COLO 205 colon = tested on: COLO 205 colon
SNB-19 CNS = tested on: SNB-19 CNS
MALME-3M melanoma = tested on: MALME-3M melanoma
MDA-MB-435 = tested on: MDA-MB-435
HOP-92 NSCLC = tested on: HOP-92 NSCLC
MOLT-4 leukemia = tested on: MOLT-4 leukemia
786-0 renal = tested on: 786-0 renal
EKVX NSCLC = tested on: EKVX NSCLC
UACC-62 melanoma = tested on: UACC-62 melanoma
UACC-257 melanoma = tested on: UACC-257 melanoma
OVCAR-8 ovarian = tested on: OVCAR-8 ovarian
SW-620 colon = tested on: SW-620 colon
SF-268 CNS = tested on: SF-268 CNS
DU-145 prostate = tested on: DU-145 prostate
NCI/ADR-RES ovarian = tested on: NCI/ADR-RES ovarian
SK-MEL-2 melanoma = tested on: SK-MEL-2 melanoma
LOX IMVI melanoma = tested on: LOX IMVI melanoma
HL-60(TB) leukemia = tested on: HL-60(TB) leukemia
BT-549 breast = tested on: BT-549 breast
TK-10 renal = tested on: TK-10 renal
HCC-2998 colon = tested on: HCC-2998 colon
IGROV1 ovarian = tested on: IGROV1 ovarian
U251 CNS = tested on: U251 CNS
HOP-62 NSCLC = tested on: HOP-62 NSCLC
SK-MEL-5 melanoma = tested on: SK-MEL-5 melanoma
PC-3 prostate = tested on: PC-3 prostate
SR leukemia = tested on: SR leukemia
NCI-H522 lung = tested on: NCI-H522 lung
HS 578T breast = tested on: HS 578T breast
SF-295 CNS = tested on: SF-295 CNS
CAKI-1 renal = tested on: CAKI-1 renal
MCF7 breast = tested on: MCF7 breast
HCT-116 colon = tested on: HCT-116 colon
NCI-H460 lung = tested on: NCI-H460 lung
SK-OV-3 ovarian = tested on: SK-OV-3 ovarian
OVCAR-5 ovarian = tested on: OVCAR-5 ovarian
HT29 colon = tested on: HT29 colon

Work on `C/C=C(/C(=C/C)c1ccc(O)cc1)c1ccc(O)cc1` yielded a GI50 (SK-MEL-28 melanoma) of 5.71 µM, a TGI (SK-MEL-28 melanoma) of 21.1 µM and a GI50 (SNB-75 CNS) of 1.9 µM. For the same compound, the TGI (SNB-75 CNS) was 5.34 µM, the GI50 (M14 melanoma) was 3.33 µM and the TGI (M14 melanoma) was 12.5 µM. For the same compound, the GI50 (T-47D breast) was 5.11 µM, the TGI (T-47D breast) was 21.9 µM and the GI50 (OVCAR-4 ovarian) was 8.18 µM. For the same compound, the TGI (OVCAR-4 ovarian) was 33.6 µM, the GI50 (SF-539 CNS) was 3.27 µM and the TGI (SF-539 CNS) was 13.8 µM. The GI50 (A549 NSCLC) was 4.04 µM, the TGI (A549 NSCLC) was 19 µM and the GI50 (OVCAR-3 ovarian) was 2.37 µM. The TGI (OVCAR-3 ovarian) was 5.38 µM, the GI50 (SN12C renal) was 5.22 µM and the TGI (SN12C renal) was 22.9 µM. The GI50 (RXF 393 renal) was 4.03 µM, the TGI (RXF 393 renal) was 17.7 µM and the GI50 (NCI-H226 lung) was 9.36 µM. For the same compound, the TGI (NCI-H226 lung) was 47 µM, the GI50 (HCT-15 colon) was 5.47 µM and the TGI (HCT-15 colon) was 20.3 µM. The GI50 (ACHN renal) was 9.64 µM, the TGI (ACHN renal) was 21.4 µM and the GI50 (UO-31 renal) was 5.34 µM. The TGI (UO-31 renal) was 24.9 µM, the GI50 (A498 renal) was 6.22 µM and the TGI (A498 renal) was 19.3 µM. The GI50 (NCI-H23 lung) was 5.3 µM, the TGI (NCI-H23 lung) was 21.9 µM and the GI50 (MDA-MB-231 breast) was 4.58 µM. The TGI (MDA-MB-231 breast) was 22.2 µM, the GI50 (KM12 colon) was 3.73 µM and the TGI (KM12 colon) was 13.6 µM. It also gave a GI50 (COLO 205 colon) of 3.25 µM, a TGI (COLO 205 colon) of 10.5 µM and a GI50 (SNB-19 CNS) of 4.79 µM. It also gave a TGI (SNB-19 CNS) of 21 µM, a GI50 (MALME-3M melanoma) of 7.07 µM and a TGI (MALME-3M melanoma) of 31 µM. It also gave a GI50 (MDA-MB-435) of 1.19 µM, a TGI (MDA-MB-435) of 3.56 µM and a GI50 (HOP-92 NSCLC) of 3.98 µM. It also gave a TGI (HOP-92 NSCLC) of 22.7 µM, a GI50 (MOLT-4 leukemia) of 5.43 µM and a TGI (MOLT-4 leukemia) of 24.2 µM. The GI50 (786-0 renal) was 5.54 µM, the TGI (786-0 renal) was 27 µM and the GI50 (EKVX NSCLC) was 7.38 µM. For the same compound, the TGI (EKVX NSCLC) was 26.7 µM, the GI50 (UACC-62 melanoma) was 4.86 µM and the TGI (UACC-62 melanoma) was 18.7 µM. It also gave a GI50 (UACC-257 melanoma) of 9.4 µM, a TGI (UACC-257 melanoma) of 24.8 µM and a GI50 (OVCAR-8 ovarian) of 4.65 µM. For the same compound, the TGI (OVCAR-8 ovarian) was 25.4 µM, the GI50 (SW-620 colon) was 3.85 µM and the TGI (SW-620 colon) was 14.9 µM. It also gave a GI50 (SF-268 CNS) of 6.32 µM, a TGI (SF-268 CNS) of 22.8 µM and a GI50 (DU-145 prostate) of 3.35 µM. The TGI (DU-145 prostate) was 10.4 µM, the GI50 (NCI/ADR-RES ovarian) was 2.81 µM and the TGI (NCI/ADR-RES ovarian) was 9.28 µM. For the same compound, the GI50 (SK-MEL-2 melanoma) was 8.4 µM, the TGI (SK-MEL-2 melanoma) was 30.7 µM and the GI50 (LOX IMVI melanoma) was 5.51 µM. The TGI (LOX IMVI melanoma) was 24.3 µM, the GI50 (HL-60(TB) leukemia) was 3.9 µM and the TGI (HL-60(TB) leukemia) was 25.1 µM. It also gave a GI50 (BT-549 breast) of 7.39 µM, a TGI (BT-549 breast) of 22.5 µM and a GI50 (TK-10 renal) of 12.8 µM. It also gave a TGI (TK-10 renal) of 29.4 µM, a GI50 (HCC-2998 colon) of 8.64 µM and a TGI (HCC-2998 colon) of 24 µM. The GI50 (IGROV1 ovarian) was 5.41 µM, the TGI (IGROV1 ovarian) was 36.8 µM and the GI50 (U251 CNS) was 3.49 µM. The TGI (U251 CNS) was 15.9 µM, the GI50 (HOP-62 NSCLC) was 3.62 µM and the TGI (HOP-62 NSCLC) was 16 µM. For the same compound, the GI50 (SK-MEL-5 melanoma) was 3.56 µM, the TGI (SK-MEL-5 melanoma) was 15.2 µM and the GI50 (PC-3 prostate) was 4.51 µM. It also gave a TGI (PC-3 prostate) of 17.4 µM, a GI50 (SR leukemia) of 4.24 µM and a TGI (SR leukemia) of 92.9 µM. It also gave a GI50 (NCI-H522 lung) of 3.63 µM, a TGI (NCI-H522 lung) of 16.9 µM and a GI50 (HS 578T breast) of 4.3 µM. For the same compound, the TGI (HS 578T breast) was 30.2 µM, the GI50 (SF-295 CNS) was 2.48 µM and the TGI (SF-295 CNS) was 8.11 µM. For the same compound, the GI50 (CAKI-1 renal) was 3.42 µM, the TGI (CAKI-1 renal) was 16.9 µM and the GI50 (MCF7 breast) was 7.19 µM. It also gave a TGI (MCF7 breast) of 26.1 µM, a GI50 (HCT-116 colon) of 4.58 µM and a TGI (HCT-116 colon) of 16.2 µM. The GI50 (NCI-H460 lung) was 3.44 µM, the TGI (NCI-H460 lung) was 13.2 µM and the GI50 (SK-OV-3 ovarian) was 2.54 µM. It also gave a TGI (SK-OV-3 ovarian) of 8.88 µM, a GI50 (OVCAR-5 ovarian) of 8.38 µM and a TGI (OVCAR-5 ovarian) of 23.2 µM. It also gave a GI50 (HT29 colon) of 3.71 µM and a TGI (HT29 colon) of 12.6 µM.
